Values quoted from earlier work as cited in patent US20090281186A1, “Composition and Method for Reducing Stress” (priority 2008, published 2009).

How the values were obtained:
[1] = inositol compared with fluvoxamine
[2] = 21 patients; 12 grams of inositol per day for four weeks; compared to placebo
[3] = sixteen individuals; acute administration; 200 mg of L-theanine or 1 mg of alprazolam vs placebo
[4] = test system: dopamine release from the corpus straitum; serotonin levels in the hippocampus and thalamus; settings: rats, L-theanine administration

Structure (SMILES)	effectiveness in treating panic disorders [1]	severity and frequency of panic attacks [2]	effect on subjects during the experimental relaxed state [3]	dopamine release from the corpus straitum [4]	serotonin levels in the hippocampus and thalamus [4]	acute stress responses (psychological and physiological measures) (oral administration, 200 mg of L-theanine)	perception of stress (psychological measures) (twelve individuals, 200 mg of L-theanine before or midway through the task vs placebo)	heart rates during the stress task (twelve individuals, 200 mg of L-theanine vs placebo)
O[C@H]1[C@H](O)[C@@H](O)[C@H](O)[C@@H](O)[C@H]1O [inositol, cis-1,2,3,5-trans-4,6-cyclohexanehexol]	equally effective	significantly decreased	–	–	–	–	–	–
Cc1nnc2n1-c1ccc(Cl)cc1C(c1ccccc1)=NC2 [alprazolam, reference compound]	–	–	had no effect	–	–	–	–	–
CCNC(=O)CCC(N)C(=O)O [L-theanine, 2-amino-4-(ethylcarbamoyl)butyric acid]	–	–	caused a tranquil state	increase dopamine release	increase serotonin levels	acute stress responses were reduced	greater increase in the perception of stress in the placebo condition compared to the other conditions	heart rates were higher in the placebo condition compared to the L-theanine groups
